Like-named read-outs stand apart in the source and are kept apart here. Where a SMILES comes first, the peptide text is derived from it.
Legend:
[1] = system: antigenic peptide-pulsed L^kb cells
[2] = system: HSV peptide-pulsed L cells; conditions: peptide given as inoculated pressure sensitive adhesive tape
Procedure: At 1 week after the peptide application, cervical lymph node was removed, and lymphocytes were cultured for 2 days in vitro in an RPMI1640 medium containing a slight amount (5 U/ml) of IL-2. The L^kb cells labeled with ^51Cr were pulsed with antigenic peptide (5 µmol) and L^tk- cells were used as a control. Cytotoxicity assay was performed using cultured lymphocytes as effector cells, and ^51Cr-labeled and antigenic peptide-pulsed L^kb cells and L^tk- cells as target cells. […] The antigenic peptides used were the three kinds recited in Reference Example 1.

Row | SMILES | cytotoxic activity of cervical lymphocyte-derived effector cells (antigen specificity) [1] | Cytotoxic activity specific to HSV peptide-pulsed L cells (%) ([2]; time after stripping 12) | Cytotoxic activity specific to HSV peptide-pulsed L cells (%) ([2]; time after stripping 24) | Cytotoxic activity specific to HSV peptide-pulsed L cells (%) ([2]; time after stripping 48) | Cytotoxic activity specific to HSV peptide-pulsed L cells (%) ([2]; time after stripping: untreated)
1 | CC[C@H](C)[C@H](NC(=O)[C@H](CO)NC(=O)[C@@H](N)CO)C(=O)N[C@@H](CCC(=O)O)C(=O)N[C@@H](Cc1ccccc1)C(=O)N[C@@H](C)C(=O)N[C@@H](CCCNC(=N)N)C(=O)N[C@@H](CC(C)C)C(=O)O [HSV gp B, Ser Ser Ile Glu Phe Ala Arg Leu] (H-SSIEFARL-OH) | recognized and certainly eradicated the cells presenting an H-2K^b - HSV gp B peptide complex alone | 45.3 ± 1.5% | 37.0 ± 1.1% | 3.5 ± 0.6% | 0.2 ± 0.8%
2 | CC[C@H](C)[C@H](NC(=O)[C@@H](NC(=O)[C@@H](N)CO)[C@@H](C)CC)C(=O)N[C@@H](CC(N)=O)C(=O)N[C@@H](Cc1ccccc1)C(=O)N[C@@H](CCC(=O)O)C(=O)N[C@@H](CCCCN)C(=O)N[C@@H](CC(C)C)C(=O)O [Ovalbumin, Ser Ile Ile Asn Phe Glu Lys Leu] | selectively damaged the cells presenting respective inoculated antigenic peptides |  |  |  | 
3 | CC(C)C[C@H](NC(=O)CNC(=O)[C@H](CCC(N)=O)NC(=O)[C@H](Cc1ccc(O)cc1)NC(=O)[C@@H](NC(=O)[C@H](Cc1ccc(O)cc1)NC(=O)CNC(=O)[C@@H](N)CCCNC(=N)N)C(C)C)C(=O)O [VSV NP, Arg Gly Tyr Val Tyr Gln Gly Leu] | selectively damaged the cells presenting respective inoculated antigenic peptides |  |  |  | 
